From patent US20240208992A1, “MACROCYCLES AS CFTR MODULATORS” (Idorsia Pharmaceuticals Ltd, priority 2021, published 2024)

Target: human F508del-CFTR (Homo sapiens, UniProt P13569, DEL508-508)
Experiment: F508del-CFTR cell surface expression (corrector activity), DiscoveRx ß-galactosidase complementation chemiluminescence assay in recombinant U2OS cell line;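 note: U2OS cells co-expressing ProLink-tagged F508del-CFTR and a membrane-anchored enzyme acceptor, where more surface CFTR restores β-galactosidase activity measured by chemiluminescence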
Settings: for EC50: EC50, F508del-CFTR cell surface expression; for Emax: U2OS
[1] = U2OS cells, 16h compound incubation, geomean values
[2] = in relation to Emax of corrector lumacaftor (=100%), arithmetic mean values
[3] = U2OS cell line, 16h compound incubation, geomean values
[4] = in relation to the Emax of the corrector lumacaftor (=100%), U2OS cell line, 16h compound incubation, arithmetic mean values
[5] = U2OS cells, 16h compound incubation, geomean of several measurements
[6] = in relation to the Emax of the corrector lumacaftor (=100%), U2OS cells, 16h compound incubation, arithmetic mean

Chain of human F508del-CFTR (P13569 with tags, fused parts or gaps DEL508-508): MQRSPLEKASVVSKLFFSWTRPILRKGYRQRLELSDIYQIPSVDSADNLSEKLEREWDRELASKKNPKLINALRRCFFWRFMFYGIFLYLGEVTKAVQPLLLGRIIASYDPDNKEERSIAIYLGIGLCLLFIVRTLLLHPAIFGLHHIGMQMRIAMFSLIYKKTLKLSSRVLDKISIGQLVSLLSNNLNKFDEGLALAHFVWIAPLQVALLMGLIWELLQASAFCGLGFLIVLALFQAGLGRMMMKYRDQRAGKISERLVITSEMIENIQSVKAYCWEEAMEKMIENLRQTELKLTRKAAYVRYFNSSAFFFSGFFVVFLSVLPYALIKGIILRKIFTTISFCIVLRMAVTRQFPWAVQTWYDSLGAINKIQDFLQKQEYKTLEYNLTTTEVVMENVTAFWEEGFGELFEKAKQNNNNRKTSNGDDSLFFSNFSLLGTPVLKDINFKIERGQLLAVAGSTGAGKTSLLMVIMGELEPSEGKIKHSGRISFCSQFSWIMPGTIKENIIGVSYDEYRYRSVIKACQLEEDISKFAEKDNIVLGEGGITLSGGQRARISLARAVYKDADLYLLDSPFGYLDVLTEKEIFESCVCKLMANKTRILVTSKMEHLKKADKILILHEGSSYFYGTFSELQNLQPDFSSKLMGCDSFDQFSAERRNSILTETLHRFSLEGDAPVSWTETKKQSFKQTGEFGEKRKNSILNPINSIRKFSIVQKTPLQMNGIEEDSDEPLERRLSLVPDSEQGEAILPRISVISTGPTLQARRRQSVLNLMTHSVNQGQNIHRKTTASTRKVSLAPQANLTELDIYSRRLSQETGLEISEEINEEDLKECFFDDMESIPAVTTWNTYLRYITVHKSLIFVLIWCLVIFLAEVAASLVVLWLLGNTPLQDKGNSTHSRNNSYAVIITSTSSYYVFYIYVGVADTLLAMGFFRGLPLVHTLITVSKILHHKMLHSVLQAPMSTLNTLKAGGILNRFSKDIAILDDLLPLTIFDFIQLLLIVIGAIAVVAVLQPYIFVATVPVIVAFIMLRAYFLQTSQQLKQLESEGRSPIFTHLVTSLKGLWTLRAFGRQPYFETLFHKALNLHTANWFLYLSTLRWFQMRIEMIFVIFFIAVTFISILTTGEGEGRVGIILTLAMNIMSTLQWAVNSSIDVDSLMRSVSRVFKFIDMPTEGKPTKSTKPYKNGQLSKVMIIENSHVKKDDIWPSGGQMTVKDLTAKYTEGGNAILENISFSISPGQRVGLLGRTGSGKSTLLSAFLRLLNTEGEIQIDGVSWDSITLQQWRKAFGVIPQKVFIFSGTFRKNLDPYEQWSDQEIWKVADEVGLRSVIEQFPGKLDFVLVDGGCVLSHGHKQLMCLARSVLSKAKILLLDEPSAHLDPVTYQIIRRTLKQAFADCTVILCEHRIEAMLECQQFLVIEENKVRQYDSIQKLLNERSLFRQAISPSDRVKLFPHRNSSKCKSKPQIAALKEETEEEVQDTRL

Compound | EC50 [1] | Emax [2] | other results
COc1cccc(CCNC(=O)[C@@H]2CC(=O)N(C)[C@@H](CC(C)C)C(=O)N3CCN(S(=O)(=O)c4cccc(OC)c4)C[C@@H]3C(=O)N[C@H](Cc3ccccc3)COc3ccc4ccccc4c3C(=O)N2)c1 [Example 739, (4aR,7R,18S,22S)-7-benzyl-22-isobutyl-N-(3-methoxyphenethyl)-3-((3-methoxyphenyl)sulfonyl)-21-methyl-5,16,20,23-tetraoxo-2,3,4,4a,5,6,7,8,16,17,18,19,20,21,22,23-hexadecahydro-1H-naphtho[1,2-p]pyrazino[2,1-f][1]oxa[4,7,10,14]tetraazacycloheptadecine-18-carboxamide] | 101 nM | 297% | 
CC(C)C[C@H]1C(=O)N2CCCC[C@@H]2C(=O)N[C@H](Cc2ccccc2)COc2cnc3c(F)cccc3c2C(=O)N[C@H](C(=O)NCCc2noc(C3CC3)n2)CC(=O)N1C [Example 498, (9S,13S,19aR,22R)-22-benzyl-N-(2-(5-cyclopropyl-1,2,4-oxadiazol-3-yl)ethyl)-3-fluoro-13-isobutyl-12-methyl-7,11,14,20-tetraoxo-7,8,9,10,11,12,13,14,17,18,19,19a,20,21,22,23-hexadecahydro-16H-pyrido[2′,11:6,7][1]oxa[4,7,10,14]tetraazacycloheptadecino[17,16-c]quinoline-9-carboxamide] | 198 nM | 313% | 
Cc1cc(CCNC(=O)[C@@H]2CC(=O)N(C)[C@@H](CC(C)C)C(=O)N3CCCC[C@@H]3C(=O)N[C@H](Cc3ccccc3)COc3ccc4ccccc4c3C(=O)N2)on1 [Example 607, (4aR,7R,18S,22S)-7-benzyl-22-isobutyl-21-methyl-N-(2-(3-methylisoxazol-5-yl)ethyl)-5,16,20,23-tetraoxo-2,3,4,4a,5,6,7,8,16,17,18,19,20,21,22,23-hexadecahydro-1H-naphtho[1,2-p]pyrido[2,1-f][1]oxa[4,7,10,14]tetraazacycloheptadecine-18-carboxamide] | 121 nM | 283% | 
Cc1cc(CCNC(=O)[C@@H]2CC(=O)N(C)[C@@H](CC(C)C)C(=O)N3CCN(CCCO)C[C@@H]3C(=O)N[C@H](Cc3ccccc3)COc3ccc4ccccc4c3C(=O)N2)on1 [Example 452, (4aR,7R,18S,22S)-7-benzyl-3-(3-hydroxypropyl)-22-isobutyl-21-methyl-N-(2-(3-methylisoxazol-5-yl)ethyl)-5,16,20,23-tetraoxo-2,3,4,4a,5,6,7,8,16,17,18,19,20,21,22,23-hexadecahydro-1H-naphtho[1,2-p]pyrazino[2,1-f][1]oxa[4,7,10,14]tetraazacycloheptadecine-18-carboxamide] | 886 nM | 292% | 
COc1cc(CCNC(=O)[C@@H]2CC(=O)N(C)[C@@H](CC(C)C)C(=O)N3CCCC[C@@H]3C(=O)N[C@H](Cc3ccccc3)COc3cnc4ccccc4c3C(=O)N2)cc(OC)c1 [Example 71, (9S,13S,19aR,22R)-22-benzyl-N-(3,5-dimethoxyphenethyl)-13-isobutyl-12-methyl-7,11,14,20-tetraoxo-7,8,9,10,11,12,13,14,17,18,19,19a,20,21,22,23-hexadecahydro-16H-pyrido[2′,11:6,7][1]oxa[4,7,10,14]tetraazacycloheptadecino[17,16-c]quinoline-9-carboxamide] |  |  | EC50 [3]: 338 nM; Emax [4]: 326%
[2H]C([2H])([2H])Oc1nc(C)cc2c1C(=O)N[C@H](C(=O)NCCc1nc(C3CC3)no1)CC(=O)N(C)[C@@H](CC(C)C)C(=O)N1CCCC[C@@H]1C(=O)N[C@H](Cc1ccccc1)CO2 [Example 657, (7S,11S,17aR,20R)-20-benzyl-N-(2-(3-cyclopropyl-1,2,4-oxadiazol-5-yl)ethyl)-11-isobutyl-4-(methoxy-d3)-2,10-dimethyl-5,9,12,18-tetraoxo-5,6,7,8,9,10,11,12,15,16,17,17a,18,19,20,21-hexadecahydro-14H-dipyrido[2,1-f:3′,4′-p][1]oxa[4,7,10,14]tetraazacycloheptadecine-7-carboxamide] | 347 nM | 291% | 
CC(C)C[C@H]1C(=O)N2CCCC[C@@H]2C(=O)N[C@H](Cc2ccccc2)COc2ccc3ncn(C)c3c2C(=O)N[C@H](C(=O)NCCc2cccc(OC(F)F)c2)CC(=O)N1C (racemic) [Example 26, (8RS,12S,18aR,21R)-21-benzyl-N-(3-(difluoromethoxy)phenethyl)-12-isobutyl-5,11-dimethyl-6,10,13,19-tetraoxo-6,7,8,9,10,11,12,13,16,17,18,18a,19,20,21,22-hexadecahydro-5H,15H-imidazo[4′,5′:5,6]benzo[1,2-p]pyrido[2,1-f][1]oxa[4,7,10,14]tetraazacycloheptadecine-8-carboxamide] |  |  | EC50 [3]: 299 nM; Emax [4]: 111%
COc1noc(CCNC(=O)[C@@H]2CC(=O)N(C)[C@@H](CC(C)C)C(=O)N(C)C3(CC(F)(F)C3)C(=O)N[C@H](Cc3ccccc3)COc3ccc4ncc(F)cc4c3C(=O)N2)n1 [Example 922, (3′S,7′S,13′R)-13′-benzyl-3,3,20′-trifluoro-7′-isobutyl-N-(2-(3-methoxy-1,2,4-oxadiazol-5-yl)ethyl)-6′,9′-dimethyl-1′,5′,8′,11′-tetraoxo-2′,3′,4′,5′,6′,7′,8′,9′,11′,12′,13′,14′-dodecahydro-1′H-spiro[cyclobutane-1,10′-[1]oxa[4,7,10,14]tetraazacycloheptadecino[16,17-f]quinoline]-3′-carboxamide] |  |  | EC50 [5]: 302 nM; Emax [6]: 396%
COc1cccc(CCNC(=O)[C@@H]2CC(=O)N(C)[C@@H](CC(C)C)C(=O)N(C)CC(=O)N[C@H](Cc3ccccc3)COc3nc4ccccn4c3C(=O)N2)c1 [Example 449, (3R,9S,13S)-3-benzyl-9-isobutyl-N-(3-methoxyphenethyl)-7,10-dimethyl-5,8,11,15-tetraoxo-2,3,4,5,6,7,8,9,10,11,12,13,14,15-tetradecahydropyrido[2′,1′:2,3]imidazo[4,5-p][1]oxa[4,7,10,14]tetraazacycloheptadecine-13-carboxamide] | 543 nM | 165% | 
CC(C)C[C@H]1C(=O)N(C)[C@H](Cc2nc(C(F)(F)F)no2)C(=O)N[C@H](Cc2ccccc2)COc2ccc3ncc(F)cc3c2C(=O)N[C@H](C(=O)NCCCOC(F)F)CC(=O)N1C [Example 944, (3S,7S,10R,13R)-13-benzyl-N-(3-(difluoromethoxy)propyl)-20-fluoro-7-isobutyl-6,9-dimethyl-1,5,8,11-tetraoxo-10-((3-(trifluoromethyl)-1,2,4-oxadiazol-5-yl)methyl)-1,2,3,4,5,6,7,8,9,10,11,12,13,14-tetradecahydro-[1]oxa[4,7,10,14]tetraazacycloheptadecino[16,17-f]quinoline-3-carboxamide] |  |  | EC50 [5]: 77 nM; Emax [6]: 336%
COc1nccc2c1C(=O)N[C@H](C(=O)NCCc1cc(C)no1)CC(=O)N(C)[C@@H](CC(C)C)C(=O)N(C)[C@H](CCOC1CCCCC1)C(=O)N[C@H](Cc1ccccc1)CO2 [Example 858, (3R,6R,9S,13S)-3-benzyl-6-(2-(cyclohexyloxy)ethyl)-9-isobutyl-16-methoxy-7,10-dimethyl-N-(2-(3-methylisoxazol-5-yl)ethyl)-5,8,11,15-tetraoxo-2,3,4,5,6,7,8,9,10,11,12,13,14,15-tetradecahydropyrido[3,4-p][1]oxa[4,7,10,14]tetraazacycloheptadecine-13-carboxamide] |  |  | EC50 [5]: 95 nM; Emax [6]: 308%
COc1cc(CCNC(=O)[C@@H]2CC(=O)N(C)[C@@H](CC(C)C)C(=O)N3CCC4(CC4)C[C@@H]3C(=O)N[C@H](Cc3ccccc3)COc3cc(C)nc(OC)c3C(=O)N2)on1 [Example 580, (7′S,11′S,17a′R,20′R)-20′-benzyl-11′-isobutyl-4′-methoxy-N-(2-(3-methoxyisoxazol-5-yl)ethyl)-2′,10′-dimethyl-5′,9′,12′,18′-tetraoxo-5′,6′,7′,8′,9′,10′,11′,12′,14′,15′,17′,17a′,18′,19′,20′,21′-hexadecahydrospiro[cyclopropane-1,16′-dipyrido[2,1-f:3′,4′-p][1]oxa[4,7,10,14]tetraazacycloheptadecine]-7′-carboxamide] | 198 nM | 319% | 
CC(C)C[C@H]1C(=O)N(C)C2(CC2)C(=O)N[C@H](Cc2ccccc2)COc2cnc3ccc(F)cc3c2C(=O)N[C@H](C(=O)NCCc2cccc(S(C)(=O)=O)c2)CC(=O)N1C [Example 167, (3′S,7′S,13′R)-13′-benzyl-20′-fluoro-7′-isobutyl-6′,9′-dimethyl-N-(3-(methylsulfonyl)phenethyl)-1′,5′,8′,11′-tetraoxo-2′,3′,4′,5′,6′,7′,8′,9′,11′,12′,13′,14′-dodecahydro-1′H-spiro[cyclopropane-1,10′-[1]oxa[4,7,10,14]tetraazacycloheptadecino[17,16-c]quinoline]-3′-carboxamide] |  |  | EC50 [3]: 822 nM; Emax [4]: 238%
CC(C)C[C@H]1C(=O)N(CC[C@@H]2CCCCO2)CC(=O)N[C@H](Cc2ccccc2)COc2ccc3ccccc3c2C(=O)N[C@H](C(=O)NCCc2ccc3c(c2)OCO3)CC(=O)N1C [Example 362, (3S,7S,13R)-N-(2-(benzo[d][1,3]dioxol-5-yl)ethyl)-13-benzyl-7-isobutyl-6-methyl-1,5,8,11-tetraoxo-9-(2-((S)-tetrahydro-2H-pyran-2-yl)ethyl)-1,2,3,4,5,6,7,8,9,10,11,12,13,14-tetradecahydronaphtho[1,2-p][1]oxa[4,7,10,14]tetraazacycloheptadecine-3-carboxamide] |  |  | EC50 [3]: 153 nM; Emax [4]: 247%
COc1cccc(CCNC(=O)[C@@H]2CC(=O)N(C)[C@@H](CC(C)C)C(=O)N(C)CC(=O)N[C@H](Cc3ccccc3)COc3ncc4ccccc4c3C(=O)N2)c1 [Example 530] | 334 nM | 353% | 
